According to paper PMC7592376, “Design and synthesis of multi-target directed 1,2,3-triazole-dimethylaminoacryloyl-chromenone derivatives with potential use in Alzheimer's disease” (BMC Chemistry, 2020):
“And” between values parts separate entries of the source, which are not always exact repeats. Equal entries are not always repeated. Where two headings read alike, the source gives them in different places.

Legend:
AChE [1] = target: T1, AChE (Electrophorus electricus, UniProt O42275); test: biochemical; conditions: mean ± SD, three independent experiments; read-out: AChEI IC50
T1 construct: purchased Aldrich
T1 sequence (O42275 24-633): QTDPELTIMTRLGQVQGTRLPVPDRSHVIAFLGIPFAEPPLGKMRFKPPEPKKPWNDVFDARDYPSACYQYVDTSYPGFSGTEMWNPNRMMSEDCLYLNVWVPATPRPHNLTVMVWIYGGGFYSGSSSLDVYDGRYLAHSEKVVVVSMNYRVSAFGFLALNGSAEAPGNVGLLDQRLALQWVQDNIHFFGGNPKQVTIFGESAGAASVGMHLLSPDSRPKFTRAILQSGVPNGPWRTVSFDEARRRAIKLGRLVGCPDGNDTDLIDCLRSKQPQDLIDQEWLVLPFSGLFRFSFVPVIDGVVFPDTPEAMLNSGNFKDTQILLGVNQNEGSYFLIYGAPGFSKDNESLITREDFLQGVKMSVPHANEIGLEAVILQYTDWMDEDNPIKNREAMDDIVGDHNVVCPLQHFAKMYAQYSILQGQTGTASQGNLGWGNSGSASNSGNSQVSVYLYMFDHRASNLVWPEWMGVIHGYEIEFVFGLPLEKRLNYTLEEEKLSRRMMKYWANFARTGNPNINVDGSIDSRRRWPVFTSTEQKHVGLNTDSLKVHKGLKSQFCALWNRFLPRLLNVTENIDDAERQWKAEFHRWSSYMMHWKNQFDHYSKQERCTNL
Procedure: (§1) All enzymes and reagents required for the assay were obtained from Aldrich. […] Each well contained 50 µL potassium phosphate buffer (KH2PO4/ K2HPO4, 0.1 M, pH 8), 25 µL sample solution, and 25 µL enzyme (final concentration 0.22 U/mL in buffer). Control experiments were also performed under the same conditions without enzyme. After incubation at room temperature for 15 min, 125 µL DTNB (3 mM in buffer) was added and the characterization of enzymatic reaction was spectrometrically performed at 405 nm followed by the addition of substrate (ATCI 3 mM in water) after 5–10 min. The IC50 values were determined graphically from inhibition curves (log inhibitor concentration vs. percent of inhibition). Also, the same method was used for the BuChE inhibition assay.

BuChE [2] = target: T2, BuChE (Homo sapiens, UniProt P06276); test: biochemical; conditions: mean ± SD, three independent experiments; read-out: BuChEI IC50
T2 construct: purchased Aldrich
T2 sequence (P06276 29-602): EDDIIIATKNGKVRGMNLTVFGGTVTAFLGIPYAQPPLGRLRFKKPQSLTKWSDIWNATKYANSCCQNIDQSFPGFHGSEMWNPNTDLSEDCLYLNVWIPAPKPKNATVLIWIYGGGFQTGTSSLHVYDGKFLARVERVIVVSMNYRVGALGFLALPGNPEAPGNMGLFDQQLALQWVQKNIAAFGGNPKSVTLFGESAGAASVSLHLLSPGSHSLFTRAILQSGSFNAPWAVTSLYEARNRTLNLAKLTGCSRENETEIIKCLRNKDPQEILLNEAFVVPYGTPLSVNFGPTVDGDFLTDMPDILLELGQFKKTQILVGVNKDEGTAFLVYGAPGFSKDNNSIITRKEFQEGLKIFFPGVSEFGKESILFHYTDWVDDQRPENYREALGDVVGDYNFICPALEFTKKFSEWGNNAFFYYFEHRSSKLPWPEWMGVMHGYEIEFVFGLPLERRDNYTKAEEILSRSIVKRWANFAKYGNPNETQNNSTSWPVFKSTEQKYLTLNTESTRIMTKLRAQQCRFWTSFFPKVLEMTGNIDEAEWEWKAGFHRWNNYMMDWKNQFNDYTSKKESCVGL
Procedure: as §1

BuChE [3] = target: T2, BuChE; test: Kinetic study of BuChE inhibition (Lineweaver-Burk and secondary plot); assay type: biochemical
Procedure: The kinetic study was performed to investigate the mechanism of inhibition by compound 10h against BuChE.
The Lineweaver–Burk reciprocal plot was provided by plotting 1/V against 1/[S] at variable concentrations of butyrylthiocholine as the substrate (187.5, 750, 1500, 3000 µM).

[4] = target: AChE-induced Aβ1-40 peptide aggregation (Homo sapiens, UniProt P05067); test: biochemical; conditions: read-out: % Inhibition AChE-induced Aβ aggregation
AChE-induced Aβ1-40 peptide aggregation, sequence (P05067 672-711): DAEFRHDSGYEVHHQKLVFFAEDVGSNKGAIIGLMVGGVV
Procedure: (§2) Inhibition of Aβ1-42 self-aggregation was measured by ThT fluorescence assay. The details of the method were reported in our previous study. To study Aβ42 aggregation inhibition, a reported method, based on the fluorescence emission of ThT was followed. Briefly, the mixtures of Aβ1-40 peptide (Bachem company, Switzerland) and AChE (Sigma, Electrophorus electricus), in the presence or absence of the test inhibitor were incubated for 24 h at room temperature.

Aβ1-42 = Aβ1-42 (Homo sapiens, UniProt P05067); test: biochemical; conditions: read-out: % Inhibition self-induced Aβ1–42 aggregation
Aβ1-42, sequence (P05067 672-713 limits assumed): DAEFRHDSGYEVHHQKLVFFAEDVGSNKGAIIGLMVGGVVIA
Procedure: as §2

PC12 cells = test: Neuroprotection against Aβ25-35-induced damage, MTT assay; assay type: cell-based; conditions: up to 50 μM, Aβ25-35 5 μM
Procedure: Compound 10h was selected to study the neuroprotective ability using PC12 cell injury induced by Aβ25–35 by MTT assay.
MTT reduction assay was used to evaluate the neuroprotective effect of compound 10h on neuronal PC12 cell damage induced by Aβ25-35. The cells were grown in monolayer culture on collagen-coated plates at 37 °C in a humidified atmosphere of 5% CO2. Neuronal PC12 cells were plated at a density of 5 × 10^5 cells/well on 96-well plates. The cells were pre-incubated with compound 10h for 3 h before human Aβ 25–35 (final concentration of 5 μM) was added. After 24 h, 90 μL the medium was taken out and 20 μL of MTT (0.5 mg/ml dissolved in RPMI containing phenol red) was added and incubated for an additional 2 h at 37 °C. The absorbance (A570 nm) was measured using a Bio-Rad microplate reader (Model 680, Bio-Rad). The details were reported in our previous work.

[5] = Metal chelation studies by UV spectra and molar ratio method; assay type: physicochemical
Procedure: The stoichiometry of complex 10h-Cu^2+ was also studied (Fig. 4) due to important role of copper ions in AD [38]. The concentration of the test compound 10h was 20 μM and the final concentration of Cu^2+ ranged from 0–44 μM with 4 μM intervals at 303.5 nm.
The plot was obtained by the corresponding absorption against the mole fraction of Cu^2+ to ligand 10h. According to the plot, the ratio 1:1 complexation ration of 10h-Cu^2+ can be seen at the fracture point of the plot with the mole fraction of […].
To study the metal chelating ability, the solutions of compound 10h and Fe^2+, Cu^2+, and Zn^2+ ions (from FeSO4, CuCl2.2H2O, and ZnCl2) were prepared in methanol. The mixture of compound 10h (1 mL) and the test ion solutions (1 mL) with the same final concentration of 20 µM in a 1 cm quartz cuvette was incubated at room temperature for 30 min. Then, the absorption spectra were recorded in the range of 200–600 nm.
The stoichiometry of complex 10h-Cu^2+ was also studied using the molar ratio method. The concentration of compound 10h was 20 μM and the final concentration of Cu^2+ ranged from 0–44 μM with 4 μM intervals at 303.5 nm. The plot was obtained by the corresponding absorption versus mole fraction of Cu^2+ to ligand 10h. All experiments were performed in triplicate.

BuChE [6] = target: T2, BuChE; set-up: method as in PMID 29421707, PMID 27914694, PMID 31327094, doi:10.1007/s00044-018-2187-8, PMID 25531792; conditions: literature compounds of Fig. 1; read-out: BuChEI, IC50; cited from earlier work
AChE [7] = target: T1, AChE; set-up: method as in PMID 29421707, PMID 27914694, PMID 25531792; conditions: literature compounds of Fig. 1; read-out: AChEI, IC50; cited from earlier work
Aβ [8] = test system: Aβ; set-up: method as in PMID 29407958, PMID 29763808, PMID 32131034; conditions: at 25 μM; cited from earlier work
Aβ [9] = test system: Aβ; set-up: method as in PMID 29407958, PMID 29763808, PMID 32131034; conditions: at 100 μM; cited from earlier work
neuronal cell line = test system: neuronal cell line; set-up: method as in PMID 29107423; conditions: cited from earlier work

| SMILES | IC50 (AChE [1]) | IC50 (BuChE [2]) | other results |
| --- | --- | --- | --- |
| CN(C)/C=C/C(=O)c1cc2ccc(OCc3cn(Cc4ccccc4)nn3)cc2oc1=O [Compound 10a, (E)-7-((1-Benzyl-1H-1,2,3-triazol-4-yl)methoxy)-3-(3-(dimethylamino)acryloyl)-2H-chromen-2-one] | > 100 µM | 34.41 ± 0.23 µM | – |
| Cc1ccccc1Cn1cc(COc2ccc3cc(C(=O)/C=C/N(C)C)c(=O)oc3c2)nn1 [Compound 10b, (E)-3-(3-(Dimethylamino)acryloyl)-7-((1-(2-methylbenzyl)-1H-1,2,3-triazol-4-yl)methoxy)-2H-chromen-2-one] | > 100 µM | 35.73 ± 0.21 µM | – |
| Cc1ccc(Cn2cc(COc3ccc4cc(C(=O)/C=C/N(C)C)c(=O)oc4c3)nn2)cc1 [Compound 10c, (E)-3-(3-(Dimethylamino)acryloyl)-7-((1-(4-methylbenzyl)-1H-1,2,3-triazol-4-yl)methoxy)-2H-chromen-2-one] | > 100 µM | > 100 µM | – |
| COc1cccc(Cn2cc(COc3ccc4cc(C(=O)/C=C/N(C)C)c(=O)oc4c3)nn2)c1 [Compound 10d, (E)-3-(3-(Dimethylamino)acryloyl)-7-((1-(3-methoxybenzyl)-1H-1,2,3-triazol-4-yl)methoxy)-2H-chromen-2-one] | > 100 µM | 23.44 ± 0.07 µM | – |
| CN(C)/C=C/C(=O)c1cc2ccc(OCc3cn(Cc4ccccc4F)nn3)cc2oc1=O [Compound 10e, (E)-3-(3-(Dimethylamino)acryloyl)-7-((1-(2-fluorobenzyl)-1H-1,2,3-triazol-4-yl)methoxy)-2H-chromen-2-one] | > 100 µM | > 100 µM | – |
| CN(C)/C=C/C(=O)c1cc2ccc(OCc3cn(Cc4cccc(F)c4)nn3)cc2oc1=O [Compound 10f, (E)-3-(3-(Dimethylamino)acryloyl)-7-((1-(3-fluorobenzyl)-1H-1,2,3-triazol-4-yl)methoxy)-2H-chromen-2-one] | > 100 µM | 59.58 ± 0.05 µM | – |
| CN(C)/C=C/C(=O)c1cc2ccc(OCc3cn(Cc4ccc(F)cc4)nn3)cc2oc1=O [Compound 10g, (E)-3-(3-(Dimethylamino)acryloyl)-7-((1-(4-fluorobenzyl)-1H-1,2,3-triazol-4-yl)methoxy)-2H-chromen-2-one] | > 100 µM | > 100 µM | – |
| CN(C)/C=C/C(=O)c1cc2ccc(OCc3cn(Cc4ccc(F)c(F)c4)nn3)cc2oc1=O [Compound 10h, (E)-7-((1-(3,4-Difluorobenzyl)-1H-1,2,3-triazol-4-yl)methoxy)-3-(3-(dimethylamino)acryloyl)-2H-chromen-2-one] | > 100 µM | 21.7 ± 0.57 µM | inhibition pattern (Lineweaver-Burk plot) (BuChE [3]; BuChE, inhibitor 0, 10.7, 42.9, 85.8 µM): mixed-type inhibition; Ki (BuChE [3]; from secondary plot of slopes vs inhibitor concentration, substrate butyrylthiocholine): 38.3 µM; inhibition at 100 µM [4]: 29.4 ± 1.5%; inhibition at 10 µM (Aβ1-42): 32.6 ± 2%; neuroprotective effect on Aβ-induced PC12 cell injury (PC12 cells): no neuroprotective effect; metal chelating ability (in words) ([5]; Fe2+, Cu2+, Zn2+): able to chelate biometals; UV absorption peaks after interaction with Cu2+ ([5]; methanol, 20 µM each, 30 min): 303.5 nm and 382.4 nm; UV absorption peaks after interaction with Fe2+ ([5]; methanol, 20 µM each, 30 min): 303.5 nm and 390.9 nm; UV absorption peaks after interaction with Zn2+ ([5]; methanol, 20 µM each, 30 min): 299.2 nm and 388.7 nm; UV absorption peaks of compound alone ([5]; methanolic solution 20 µM): 309.9 nm and 386.7 nm |
| CN(C)/C=C/C(=O)c1cc2ccc(OCc3cn(Cc4ccccc4Cl)nn3)cc2oc1=O [Compound 10i, (E)-7-((1-(2-Chlorobenzyl)-1H-1,2,3-triazol-4-yl)methoxy)-3-(3-(dimethylamino)acryloyl)-2H-chromen-2-one] | > 100 µM | > 100 µM | – |
| CN(C)/C=C/C(=O)c1cc2ccc(OCc3cn(Cc4ccc(Cl)cc4)nn3)cc2oc1=O [Compound 10j, (E)-7-((1-(4-Chlorobenzyl)-1H-1,2,3-triazol-4-yl)methoxy)-3-(3-(dimethylamino)acryloyl)-2H-chromen-2-one] | > 100 µM | > 100 µM | – |
| CN(C)/C=C/C(=O)c1cc2ccc(OCc3cn(Cc4ccccc4Br)nn3)cc2oc1=O [Compound 10k, (E)-7-((1-(2-Bromobenzyl)-1H-1,2,3-triazol-4-yl)methoxy)-3-(3-(dimethylamino)acryloyl)-2H-chromen-2-one] | > 100 µM | > 100 µM | – |
| CN(C)/C=C/C(=O)c1cc2ccc(OCc3cn(Cc4cccc(Br)c4)nn3)cc2oc1=O [Compound 10l, (E)-7-((1-(3-Bromobenzyl)-1H-1,2,3-triazol-4-yl)methoxy)-3-(3-(dimethylamino)acryloyl)-2H-chromen-2-one] | > 100 µM | 65.96 ± 0.004 µM | – |
| CN(C)/C=C/C(=O)c1cc2ccc(OCc3cn(Cc4ccc(Br)cc4)nn3)cc2oc1=O [Compound 10m, (E)-7-((1-(4-Bromobenzyl)-1H-1,2,3-triazol-4-yl)methoxy)-3-(3-(dimethylamino)acryloyl)-2H-chromen-2-one] | > 100 µM | > 100 µM | – |
| Nc1c2c(nc3ccccc13)CCCC2 [Tacrine, reference compound] | – | – | inhibition at 100 µM [4]: 6.7 ± 0.9%; inhibition at 10 µM (Aβ1-42): 7.6 ± 1.4% |
| O=C(NCc1cc[n+](Cc2cccc(F)c2)cc1)c1cc2ccccc2oc1=O [compound A] | – | – | IC50 (BuChE [6]): 12.2 µM |
| COc1ccc(Cn2cc(COc3ccc4ccc(=O)oc4c3)nn2)cc1 [compound B] | – | – | IC50 (AChE [7]): 3.4 µM; IC50 (BuChE [6]): 1.1 µM |
| Clc1ccc(Cn2cc(CSc3nnc(-c4ccccc4)c(-c4ccccc4)n3)nn2)cc1 [compound C] | – | – | IC50 (BuChE [6]): 6.41 µM |
| CN(C)CCC(=O)c1ccc(-c2ccc(C(=O)CCN(C)C)cc2)cc1 [compound D] | – | – | IC50 (AChE [7]): 19.9 µM; IC50 (BuChE [6]): 0.32 µM |
| Cc1cc(=O)oc2cc(OCCCCSC(=S)N3CCCCC3)ccc12 [compound E] | – | – | Aß aggregation inhibition (Aβ [8]): 40.19% |
| COc1ccc(-c2cc3ccc(OCCCn4cc(CNC(=O)CCCCC5CCSS5)nn4)cc3oc2=O)cc1OC (centres unmarked) [compound F] | – | – | Aß self aggregation inhibition (Aβ [9]): 51.2% |
| N=c1oc2ccccc2cc1C(=O)Nc1cc(Br)ccc1NCc1cn(CCC2C(=O)c3ccccc3C2=O)nn1 [compound G] | – | – | IC50 (neuronal cell line): 7.9 µM |
